Reference: patent publication US8673949B2 (Bristol-Myers Squibb Company, priority 2008, dated 2014)
Values joined by “and” are separate entries in the source; they are usually repeats but may differ in a detail not shown here. Equal values may be shown once. Read-outs that look alike come from different tables or passages of the source. Values belong to the compound of their own block, whether it stands above or below them.

Key:
in vivo = conditions: nude, mouse, iv
[1] = system: PrP T44 Tau transgenic mice; conditions: treatment for 3 months; cited from earlier work
[2] = mouse, in vivo, iv; for Brain-to-Liver Ratio: nude, 12 mg/kg
[3] = Plasma, brain and liver levels after oral gavage in C57BL/6 mice; format: in vivo, mouse; conditions: C57BL/6 mice; for Brain/Liver Ratio / Kp at 1 h / concentration at 1 h / concentration at 1 hr: 1 hr; for Kp at 1 h: brain and plasma
Description: Below, we first report the experimental detail for preparation and isolation of Compound III, and then the biological, in vivo data is described.

[4] = bolus IV 5 mpk, cited from earlier work; for Brain conc / Plasma conc: WO 03/074053 data converted to nM; for Brain-to-plasma Ratio: WO 03/074053 data
[5] = system: paclitaxel-induced peripheral neuropathy; conditions: rats; cited from earlier work
[6] = Plasma, brain and liver levels after bolus IV administration in nude mice

Compound: CC(=O)O[C@H]1C(=O)[C@@]2(C)[C@H]([C@H](OC(=O)c3ccccc3)[C@]3(O)C[C@H](OC(=O)[C@H](O)[C@@H](NC(=O)c4ccccc4)c4ccccc4)C(C)=C1C3(C)C)[C@]1(OC(C)=O)CO[C@@H]1C[C@@H]2O [Paclitaxel, paclitaxel]
concentration at 1 h (in vivo; 4 mg/kg, Brain conc): 0.047 µM | concentration at 6 h (in vivo; 4 mg/kg, Brain conc): 0.016 µM | concentration at 24 h (in vivo; 4 mg/kg, Brain conc): 0.015 µM | Kp at 1 h (in vivo; 4 mg/kg, Brain-to-plasma Ratio): 0.1 | Kp at 6 h (in vivo; 4 mg/kg, Brain-to-plasma Ratio): 0.37 | Kp at 24 h (in vivo; 4 mg/kg, Brain-to-plasma Ratio): 1.25 | concentration at 1 h (in vivo; 4 mg/kg, Plasma conc): 0.447 µM | concentration at 6 h (in vivo; 4 mg/kg, Plasma conc): 0.043 µM | concentration at 24 h (in vivo; 4 mg/kg, Plasma conc): 0.012 µM | Tau pathology (spheroids) [1]: unaffected | microtubule numbers and axonal transport in the ventral roots of the spinal cord [1]: increased microtubule numbers and axonal transport | motor dysfunction [1]: reduced motor dysfunction | brain levels ([2]; 4 mg/kg): low

Compound: CCC[C@H]1C(=O)C(C)(C)[C@@H](O)CC(=O)O[C@H](/C(C)=C/c2csc(C)n2)CC=C(C)CCC[C@H](C)[C@@H]1O (single isomer, unassigned) [Compound III, 4,8-dihydroxy-16-(1-methyl-2-(2-methyl-4-thiazolyl)-ethenyl)-1-oxa-7-(1-propyl)-5,5,9,13-tetramethyl-cyclohexadec-13-ene-2,6-dione]
brain retention ([3]; oral 10 and 35 mpk, no measureable brain levels at 24 h): poor brain retention | brain half life compared with epothilone D ([3]; oral 35 mpk, FIG. 9): significantly shorter than epothilone D | Brain/Liver Ratio ([3]; oral gavage 10 mpk): 0.1 | Brain conc ([3]; oral gavage 10 mpk, 5 hr): (3.7 nM) | Brain conc ([3]; oral gavage 10 mpk, 7 hr): (3.7 nM) | Brain conc ([3]; oral gavage 10 mpk, 24 hr): (3.7 nM) | Plasma conc ([3]; oral gavage 10 mpk, 24 hr): (0.2 nM) | Brain/Liver Ratio ([3]; oral gavage 35 mpk): 0.4 | Brain conc ([3]; oral gavage 35 mpk, 24 hr): <LLQ | Kp at 1 h ([3]; mouse, 10 mg/kg, oral gavage 10 mpk, read-out: Brain/Plasma Ratio): 0.8 | Kp at 1 h ([3]; mouse, 35 mg/kg, oral gavage 35 mpk, read-out: Brain/Plasma Ratio): 2.3 | concentration at 1 h ([3]; mouse, brain, 10 mg/kg, oral gavage 10 mpk, read-out: Brain conc): 0.0096 µM | concentration at 1 hr ([3]; mouse, brain, 35 mg/kg, oral gavage 35 mpk, read-out: Brain conc): 0.0677 µM | concentration at 5 hr ([3]; mouse, brain, 35 mg/kg, oral gavage 35 mpk, 5 hr, read-out: Brain conc): 0.0046 µM | Kp at 5 h ([3]; mouse, brain/plasma, 35 mg/kg, oral gavage 35 mpk, 5 hr, read-out: Brain/Plasma Ratio): 1.4 | concentration at 1 h ([3]; mouse, plasma, 10 mg/kg, oral gavage 10 mpk, read-out: Plasma conc): 0.0123 µM | concentration at 5 hr ([3]; mouse, plasma, 10 mg/kg, oral gavage 10 mpk, 5 hr, read-out: Plasma conc): 0.0013 µM | concentration at 7 hr ([3]; mouse, plasma, 10 mg/kg, oral gavage 10 mpk, 7 hr, read-out: Plasma conc): 0.0012 µM | concentration at 1 hr ([3]; mouse, plasma, 35 mg/kg, oral gavage 35 mpk, read-out: Plasma conc): 0.0477 µM | concentration at 5 hr ([3]; mouse, plasma, 35 mg/kg, oral gavage 35 mpk, 5 hr, read-out: Plasma conc): 0.003 µM | concentration at 24 hr ([3]; mouse, plasma, 35 mg/kg, oral gavage 35 mpk, 24 hr, read-out: Plasma conc): 0.0007 µM | Brain conc ([4]; 0.17 hr): 580 nM | Plasma conc ([4]; 0.17 hr): 1540 nM | Brain-to-plasma Ratio ([4]; 0.17 hr): 0.4 | Brain conc ([4]; 0.67 hr): 1150 nM | Plasma conc ([4]; 0.67 hr): 580 nM | Brain-to-plasma Ratio ([4]; 0.67 hr): 2 | Brain-to-plasma Ratio ([4]; […]): 1.3

Compound: NAP: a peptide of sequence NAPVSIPQ
protection against paclitaxel-induced peripheral neuropathy [5]: able to protect against paclitaxel-induced peripheral neuropathy

Kp at 1 h (in vivo; 12 mg/kg): 0.73 | Kp at 2 h (in vivo; 12 mg/kg): 2.1 | Kp at 6 h (in vivo; 12 mg/kg): 7 | Kp at 24 h (in vivo; 12 mg/kg): 30 | Kp at […] (in vivo; 12 mg/kg): 0.05 and 0.16 | concentration at 1 h (in vivo; 12 mg/kg, Brain conc): 0.284 µM | concentration at 2 h (in vivo; 12 mg/kg, Brain conc): 0.36 µM | concentration at 6 h (in vivo; 12 mg/kg, Brain conc): 0.371 µM | concentration at 24 h (in vivo; 12 mg/kg, Brain conc): 0.236 µM | concentration at 1 h (in vivo; 12 mg/kg, Plasma conc): 0.39 µM | concentration at 2 h (in vivo; 12 mg/kg, Plasma conc): 0.171 µM | concentration at 6 h (in vivo; 12 mg/kg, Plasma conc): 0.053 µM | concentration at 24 h (in vivo; 12 mg/kg, Plasma conc): 0.008 µM | Brain-to-Liver Ratio ([2]; 1 h): 0.07 | Brain-to-Liver Ratio ([2]; 2 h): 0.11 | Brain-to-Liver Ratio ([2]; 6 h): 0.30 | Brain-to-Liver Ratio ([2]; 24 h): 1.2
Compound: C/C(=C\c1csc(C)n1)[C@@H]1C[C@@H]2O[C@]2(C)CCC[C@H](C)[C@H](O)[C@@H](C)C(=O)C(C)(C)[C@@H](O)CC(=O)N1 [Ixabepilone, (1S,3S,7S,10R,11S,12S,16R)-7,11-dihydroxy-8,8,10,12,16-pentamethyl-3-[(1E)-1-methyl-2-(2-methyl-4-thiazolyl)ethenyl]-17-oxa-4-azabicyclo[14.1.0]heptadecane-5,9-dione]
brain levels relative to peripheral tissue (ratio of brain-to-liver compound levels) [2]: modest brain levels relative to peripheral tissue

Compound: C/C(=C\c1csc(CN)n1)[C@@H]1C[C@@H]2O[C@]2(C)CCC[C@H](C)[C@H](O)[C@@H](C)C(=O)C(C)(C)[C@@H](O)CC(=O)O1 [Compound II]
Brain-to-Liver Ratio ([6]; bolus IV 1 mpk, 6 hr): 0.01 | Brain-to-Liver Ratio ([6]; bolus IV 1 mpk, 24 hr): 0.02 | brain levels relative to peripheral tissue (ratio of brain-to-liver compound levels) ([6]; bolus IV, particularly at later times): modest brain levels relative to peripheral tissue | concentration at 6 h ([6]; nude, mouse, in vivo, iv, 1 mg/kg, Brain conc, bolus IV 1 mpk, 6 hr): 0.0068 µM | concentration at 24 h ([6]; nude, mouse, in vivo, iv, 1 mg/kg, Brain conc, bolus IV 1 mpk, 24 hr): 0.0013 µM | Kp at 6 h ([6]; nude, mouse, in vivo, iv, 1 mg/kg, Brain-to-plasma Ratio, bolus IV 1 mpk, 6 hr): 2.1 | Kp at 24 h ([6]; nude, mouse, in vivo, iv, 1 mg/kg, Brain-to-plasma Ratio, bolus IV 1 mpk, 24 hr): 1.2 | concentration at 6 h ([6]; nude, mouse, in vivo, iv, 1 mg/kg, Plasma conc, bolus IV 1 mpk, 6 hr): 0.003 µM | concentration at 24 h ([6]; nude, mouse, in vivo, iv, 1 mg/kg, Plasma conc, bolus IV 1 mpk, 24 hr): 0.001 µM
